In the supplement of paper PMC10307832:

Tests used:
Experiment in all cases: relative viability (nuclei count vs DMSO), 5 days (fraction); higher = more cells survive
EHT 1864 + Palbociclib = compound: C1COCCN1CC2=CC(=O)C(=CO2)OCCCCCSC3=C4C=CC(=CC4=NC=C3)C(F)(F)F [EHT 1864] + CC(=O)c1c(C)c2cnc(Nc3ccc(N4CCNCC4)cn3)nc2n(C2CCCC2)c1=O [Palbociclib] (partner 0.5 µM)
Summary of the method: (§1)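 Relative viability divides the nuclei count in treated wells by that in vehicle wells. Lung cancer cell lines were seeded in 1536-well plates, dosed by pin tool the next day, and fixed and stained after 5 days in one step with final 0.05% Triton X-100, 1% formaldehyde and 1 ug/ml Hoechst. Dosing was a single drug or a fixed anchor-drug dose plus five library-drug doses (not always all listed) in √10 steps, and values are medians of duplicate plates imaged at 4×.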

EHT 1864 + Luminespib = compound: C1COCCN1CC2=CC(=O)C(=CO2)OCCCCCSC3=C4C=CC(=CC4=NC=C3)C(F)(F)F [EHT 1864] + CCNC(=O)c1noc(-c2cc(C(C)C)c(O)cc2O)c1-c1ccc(CN2CCOCC2)cc1 [Luminespib] (partner 0.01 µM)
Summary of the method: as §1

EHT 1864 + OSI-027 = compound: C1COCCN1CC2=CC(=O)C(=CO2)OCCCCCSC3=C4C=CC(=CC4=NC=C3)C(F)(F)F [EHT 1864] + COc1cccc2cc(-c3nc([C@H]4CC[C@H](C(=O)O)CC4)n4ncnc(N)c34)[nH]c12 [OSI-027] (partner 0.5 µM)
Summary of the method: as §1

EHT 1864 + Pictilisib = compound: C1COCCN1CC2=CC(=O)C(=CO2)OCCCCCSC3=C4C=CC(=CC4=NC=C3)C(F)(F)F [EHT 1864] + CS(=O)(=O)N1CCN(Cc2cc3nc(-c4cccc5[nH]ncc45)nc(N4CCOCC4)c3s2)CC1 [Pictilisib] (partner 1 µM)
Summary of the method: as §1

| Cell Line | relative viability (EHT 1864 + Palbociclib; first compound 0.04 µM) | relative viability (EHT 1864 + Palbociclib; first compound 0.1265 µM) | relative viability (EHT 1864 + Palbociclib; first compound 0.4 µM) | relative viability (EHT 1864 + Palbociclib; first compound 1.265 µM) | relative viability (EHT 1864 + Palbociclib; first compound 4 µM) | relative viability (EHT 1864 + Luminespib; first compound 0.04 µM) | relative viability (EHT 1864 + Luminespib; first compound 0.1265 µM) | relative viability (EHT 1864 + Luminespib; first compound 0.4 µM) | relative viability (EHT 1864 + Luminespib; first compound 1.265 µM) | relative viability (EHT 1864 + Luminespib; first compound 4 µM) | relative viability (EHT 1864 + OSI-027; first compound 0.04 µM) | relative viability (EHT 1864 + OSI-027; first compound 0.1265 µM) | relative viability (EHT 1864 + OSI-027; first compound 0.4 µM) | relative viability (EHT 1864 + OSI-027; first compound 1.265 µM) | relative viability (EHT 1864 + OSI-027; first compound 4 µM) | relative viability (EHT 1864 + Pictilisib; first compound 0.04 µM) | relative viability (EHT 1864 + Pictilisib; first compound 0.4 µM) | relative viability (EHT 1864 + Pictilisib; first compound 1.265 µM) | relative viability (EHT 1864 + Pictilisib; first compound 4 µM) | relative viability (EHT 1864 + Pictilisib; first compound 0.1265 µM) |
| --- | --- | --- | --- | --- | --- | --- | --- | --- | --- | --- | --- | --- | --- | --- | --- | --- | --- | --- | --- | --- |
| LCLC-97TM1 | 0.225 | 0.15 | 0.183 | 0.187 | 0.241 | 0.701 | 0.517 | 0.772 | 0.718 | 0.784 | 0.429 | 0.583 | 0.339 | 0.568 | 0.517 | 0.222 | 0.161 | 0.224 | 0.227 |  |
| HARA | 0.269 | 0.226 | 0.215 | 0.26 | 0.291 | 0.738 | 0.68 | 0.75 | 0.644 | 0.719 | 0.433 | 0.201 | 0.516 | 0.454 | 0.435 | 0.393 | 0.531 | 0.321 | 0.446 | 0.359 |
| HCC-78 | 0.414 | 0.568 | 0.46 | 0.493 | 0.478 |  |  |  |  |  | 0.373 | 0.337 | 0.305 | 0.37 | 0.375 | 0.262 | 0.242 | 0.205 | 0.25 | 0.209 |
| NCI-H1666 | 0.644 | 0.611 | 0.667 | 0.583 | 0.636 | 1 | 1.03 | 0.877 | 0.993 | 0.968 | 0.887 | 0.691 | 0.8 | 0.81 | 0.833 | 0.533 | 0.501 | 0.545 | 0.575 | 0.442 |
| NCI-H2347 | 0.428 | 0.382 | 0.368 | 0.439 | 0.364 | 0.859 | 0.47 | 0.401 |  | 0.745 | 0.389 | 0.369 | 0.442 |  | 0.396 | 0.596 | 0.582 | 0.639 | 0.583 |  |
| NCI-H838 | 0.208 | 0.185 | 0.266 | 0.223 | 0.244 | 0.274 | 0.237 | 0.383 | 0.266 | 0.293 | 0.371 | 0.313 | 0.395 | 0.376 | 0.425 | 0.501 | 0.548 | 0.435 | 0.428 | 0.353 |
| NCI-H2023 | 0.33 | 0.318 | 0.354 | 0.382 | 0.364 | 0.585 | 0.723 | 0.704 | 0.634 | 0.68 | 0.373 | 0.314 | 0.375 | 0.313 | 0.369 | 0.244 | 0.223 | 0.212 | 0.271 | 0.208 |
| 201T | 0.345 | 0.36 | 0.353 | 0.307 | 0.356 | 0.994 | 1.06 | 1.01 | 0.891 | 0.946 | 0.762 | 0.549 | 0.623 | 0.572 | 0.744 | 0.703 | 0.7 | 0.647 | 0.607 | 0.676 |
| NCI-H1915 | 0.554 |  | 0.53 | 0.503 | 0.516 | 0.8 |  | 0.733 | 0.577 | 0.791 | 0.657 |  | 0.641 | 0.599 | 0.545 | 1.02 | 0.963 | 0.998 | 0.905 |  |
| NCI-H2009 | 0.228 | 0.209 | 0.193 | 0.24 | 0.173 | 1 | 0.926 | 0.979 | 0.913 | 0.789 | 0.594 | 0.521 | 0.677 | 0.62 | 0.511 | 0.798 | 0.852 | 0.718 | 0.761 | 0.664 |
| BEN | 0.468 | 0.493 | 0.472 | 0.435 | 0.47 | 0.264 | 0.17 | 0.527 | 0.333 | 0.533 | 0.303 | 0.278 | 0.297 | 0.299 | 0.302 | 0.523 | 0.589 | 0.576 | 0.61 | 0.532 |
| PC-14 | 0.489 | 0.446 | 0.524 | 0.582 | 0.471 | 0.121 |  | 0.199 | 0.196 | 0.143 | 0.813 | 0.75 | 0.814 | 1.05 | 0.88 | 0.664 | 0.686 | 0.637 | 0.582 | 0.59 |
| NCI-H1793 | 0.242 | 0.281 | 0.315 | 0.28 | 0.373 | 0.143 |  | 0.141 |  | 0.178 | 0.226 |  | 0.313 |  | 0.262 |  | 0.366 | 0.3 | 0.311 | 0.465 |
| NCI-H727 | 0.663 | 0.642 | 0.626 | 0.595 | 0.653 | 0.62 | 0.417 | 0.376 | 0.538 | 0.385 | 0.525 | 0.532 | 0.592 | 0.576 | 0.61 | 0.482 | 0.419 |  | 0.458 | 0.353 |
| NCI-H1355 | 0.411 | 0.357 | 0.391 | 0.389 | 0.414 | 0.711 | 0.652 | 0.691 | 0.654 | 0.699 | 0.417 | 0.289 | 0.409 | 0.397 | 0.396 | 0.423 | 0.412 | 0.445 | 0.475 | 0.385 |
| NCI-H1975 | 0.641 | 0.647 | 0.4 | 0.348 | 0.552 | 0.143 | 0.284 | 0.201 | 0.155 | 0.199 | 0.709 | 0.668 | 0.667 |  | 0.591 | 0.304 | 0.278 | 0.269 | 0.301 | 0.305 |
| LK-2 | 0.67 |  | 0.523 | 0.639 | 0.588 | 0.167 |  | 0.224 | 0.178 | 0.177 | 0.243 | 0.154 | 0.227 | 0.188 | 0.187 | 0.614 | 0.591 | 0.479 | 0.661 | 0.487 |
